Several values for one entry are separate records, joined by “and”; a condition that tells them apart may be missing. Equal entries are not always repeated. Where two headings read alike, the source gives them in different places.
How the values were obtained:
rats = assay: Porsolt helplessness test; assay type: in vivo, rat
white Wistar rats = assay: suspension test (24 h), antistress and anxiolytic activity; assay type: in vivo, rat
Description: The anti-stress, anxiolytic and antidepressant effects of the claimed agent and compositions on its basis were determined as follows. […] The suspension test. Five animals from each group were used. Each animal was suspended for 24 hours. After that the sample of whole blood was taken from the sublingual vessels of that animal Then the animal was placed in a desiccator with diethyl ether. 60 minutes later a spinal decapitation of the animal was performed. The abdominal opening was performed and the number of ulcers on the inner surface of the stomach was counted. The obtained whole blood was placed in two test tubes. The whole blood was used to determine the number of eosinophils by the Duncker method. Serum was used to determine the biochemical composition of the blood. Adrenaline and norepinephrine were determined as biochemical indices. These characteristics are specific markers identifying the impact of stress factors of various etiologies. • 2. The transport stress simulation test. Five animals from each group were used. The animals were placed in cages fixed on a laboratory shutter. The duration of the test was 240 minutes. At the end of the test the animals were examined by the techniques described in paragraph 1. A sample of whole blood was taken to determine the number of eosinophils by the Duncker method. The blood serum was studied to measure the amount of enzymes: alanine aminotransferase (ALT), aspartate aminotransferase (AST), creatinine
The tests were carried out on 2-month-old rats of the Wistar line. The groups were selected according to the principle of paired counterparts.
During the course of the study the animals were selected from the formed groups of 10 animals each to participate in stress tests, 5 animals per test. The selection was made on the 7th, 14th, 21st day of the drug administration (experiments were performed on the same days right after selection). The animals were weighed weekly immediately before testing. The obtained data were processed by statistical methods of mathematical statistics. The drug was administered to the animals of the 2nd, 3rd and 4th groups in solution through a gastric tube. Water for injection produced by the “Bufus Novosibkhimpharm” was used as a solvent. The introduced volume was 1.5 ml. The solution was introduced at the same tine 2 hours after morning feeding. The first group was given water for injection by the same way. The volume of administration was 1.5 ml.
During the test a change in the reaction of the animals was observed during prolonged administration of the preparation. Three sequences of the experiment were performed with a periodicity of 7 days. The drug was administered from the first day of the study daily without a break. Thus, accumulation of the drug in the animal body occurred. Five animals from each group were used in each sequence of the experiment (the animals were suspended for 24 hours). After this, blood samples were taken from the sublingual vessels. Further, the animal was euthanized with diethyl ether. Decapitation and dissection of the abdominal cavity were performed to calculate the number of ulcers on the inner surface of the stomach. The rats as objects for the study of psychotropic drugs are a successful model. They react quickly to various stress factors. It is convenient to evaluate the efficacy of drugs due to various factors beginning with physiological, behavioral, biochemical and other parameters. In the suspension test, it is possible to determine the overall psycho-emotional state of the animal in addition to physical endurance.
The physiological, morphological and biochemical characteristics, such as the determination of ulcers in the stomach, eosinophils in whole blood, epinephrine and norepinephrine in blood serum were estimated as main and most informative indicators of the onset of a stress state in a living organism and of overall impact on the body. […]

male Wistar rats = details: for Dead / Survived: 6 rats
[1] = 7 days after the dosing, LiAsc, LiCa 5 mg/kg, phenazepam 0.25 mg
[2] = 7 days after the drug withdrawal, 5 mg/kg
[3] = 28 days after the dosing, LiAsc, LiCa 5 mg/kg, phenazepam 0.25 mg
[4] = 28 days after the drug withdrawal, 5 mg/kg
[5] = 30 mg/kg solution by gastric tube, administration day 7
[6] = 30 mg/kg solution by gastric tube, administration day 14
[7] = 30 mg/kg solution by gastric tube, administration day 21
[8] = 60 mg/kg in the form of pills with cocoa, administration day 7
[9] = 60 mg/kg in the form of pills with cocoa, administration day 14
[10] = 60 mg/kg in the form of pills with cocoa, administration day 21
[11] = 60 mg/kg solution by gastric tube, administration day 7
[12] = 60 mg/kg solution by gastric tube, administration day 14
[13] = 60 mg/kg solution by gastric tube, administration day 21
[14] = 120 mg/kg solution by gastric tube, administration day 7
[15] = 120 mg/kg solution by gastric tube, administration day 14
[16] = 120 mg/kg solution by gastric tube, administration day 21
[17] = single oral dose 6000 mg/kg, 6000 mg/kg
[18] = single oral dose 7000 mg/kg, 7000 mg/kg

O=C1O[C@H]([C@@H](O)CO)C([O-])=C1O.[Li+] [lithium ascorbate]
Adrenalin (rats; [1]): 7.4 ± 1.4 µg/L | Duration of activity (rats; [1]): 356.4 ± 26.1 s | Duration of immobility (rats; [1]): 243.6 ± 17.6 s | Eosinophils (Dunger method) in mm^3 (rats; [1]): 783.2 ± 24.7 in mm^3 | Noradrenalin (rats; [1]): 19.9 ± 0.9 µg/L | Number of gastric ulcers (rats; [1]): 1.5 ± 0.6 | Adrenalin (rats; [2]): 8.4 ± 0.9 µg/L | Duration of activity (rats; [2]): 472.6 ± 29.3 s | Duration of immobility (rats; [2]): 127.3 ± 19.7 s | Eosinophils (Dunger method) in mm^3 (rats; [2]): 923.5 ± 64.2 in mm^3 | Noradrenalin (rats; [2]): 18.3 ± 3.2 µg/L | Number of gastric ulcers (rats; [2]): 1.6 ± 0.9 | Adrenalin (rats; [3]): 6.1 ± 0.6 µg/L | Duration of activity (rats; [3]): 506.4 ± 31.4 s | Duration of immobility (rats; [3]): 93.0 ± 19.3 s | Eosinophils (Dunger method) in mm^3 (rats; [3]): 987.3 ± 34.8 in mm^3 | Noradrenalin (rats; [3]): 15.6 ± 0.79 µg/L | Number of gastric ulcers (rats; [3]): 0.8 ± 0.2 | Adrenalin (rats; [4]): 20.3 ± 9.3 µg/L | Duration of activity (rats; [4]): 221.1 ± 19.8 s | Duration of immobility (rats; [4]): 377.9 ± 86.4 s | Eosinophils (Dunger method) in mm^3 (rats; [4]): 409.7 ± 37.9 in mm^3 | Noradrenalin (rats; [4]): 38.9 ± 10.9 µg/L | Number of gastric ulcers (rats; [4]): 5.9 ± 0.4 | Adrenaline level in blood serum (white Wistar rats; [5]): 8.1 ± 0.52 µg/L | Eosinophil count in whole blood (white Wistar rats; [5]): 764 ± 6.5 | Noradrenaline level in blood serum (white Wistar rats; [5]): 24.3 ± 2.2 µg/L | Number of ulcers in the stomach (white Wistar rats; [5]): 4.5 ± 0.9 | Adrenaline level in blood serum (white Wistar rats; [6]): 6.9 ± 2.77 µg/L | Eosinophil count in whole blood (white Wistar rats; [6]): 897 ± 7.2 | Noradrenaline level in blood serum (white Wistar rats; [6]): 18.2 ± 5.28 µg/L | Number of ulcers in the stomach (white Wistar rats; [6]): 2.4 ± 0.2 | Adrenaline level in blood serum (white Wistar rats; [7]): 6.9 ± 0.97 µg/L | Eosinophil count in whole blood (white Wistar rats; [7]): 954 ± 9.7 | Noradrenaline level in blood serum (white Wistar rats; [7]): 17.9 ± 0.95 µg/L | Number of ulcers in the stomach (white Wistar rats; [7]): 1.9 ± 0.4 | Eosinophil count in whole blood (white Wistar rats; [8]): 653 ± 9.2 | Noradrenaline level in blood serum (white Wistar rats; [8]): 54.8 ± 10.4 µg/L | Number of ulcers in the stomach (white Wistar rats; [8]): 8.7 ± 1.2 | Adrenaline level in blood serum (white Wistar rats; [9]): 6.7 ± 0.96 µg/L | Eosinophil count in whole blood (white Wistar rats; [9]): 913 ± 0.9 | Noradrenaline level in blood serum (white Wistar rats; [9]): 18.4 ± 0.49 µg/L | Number of ulcers in the stomach (white Wistar rats; [9]): 1.6 ± 0.9 | Adrenaline level in blood serum (white Wistar rats; [10]): 7.9 ± 3.61 µg/L | Eosinophil count in whole blood (white Wistar rats; [10]): 954 ± 3.6 | Noradrenaline level in blood serum (white Wistar rats; [10]): 17.8 ± 0.98 µg/L | Number of ulcers in the stomach (white Wistar rats; [10]): 1.5 ± 0.6 | Adrenaline level in blood serum (white Wistar rats; [11]): 7.9 ± 0.21 µg/L | Eosinophil count in whole blood (white Wistar rats; [11]): 791 ± 1.2 | Noradrenaline level in blood serum (white Wistar rats; [11]): 22.1 ± 1.98 µg/L | Number of ulcers in the stomach (white Wistar rats; [11]): 4.1 ± 0.8 | Adrenaline level in blood serum (white Wistar rats; [12]): 7.1 ± 1.19 µg/L | Eosinophil count in whole blood (white Wistar rats; [12]): 866 ± 9.4 | Noradrenaline level in blood serum (white Wistar rats; [12]): 20.3 ± 3.49 µg/L | Number of ulcers in the stomach (white Wistar rats; [12]): 2.6 ± 0.4 | Adrenaline level in blood serum (white Wistar rats; [13]): 7.3 ± 2.14 µg/L | Eosinophil count in whole blood (white Wistar rats; [13]): 910 ± 4.1 | Noradrenaline level in blood serum (white Wistar rats; [13]): 19.3 ± 6.13 µg/L | Number of ulcers in the stomach (white Wistar rats; [13]): 2.4 ± 0.5 | Adrenaline level in blood serum (white Wistar rats; [14]): 7.6 ± 0.38 µg/L | Eosinophil count in whole blood (white Wistar rats; [14]): 768 ± 6.7 | Noradrenaline level in blood serum (white Wistar rats; [14]): 20.2 ± 5.67 µg/L | Number of ulcers in the stomach (white Wistar rats; [14]): 4.0 ± 0.5 | Adrenaline level in blood serum (white Wistar rats; [15]): 8.7 ± 3.82 µg/L | Eosinophil count in whole blood (white Wistar rats; [15]): 885 ± 3.8 | Noradrenaline level in blood serum (white Wistar rats; [15]): 20.3 ± 4.83 µg/L | Number of ulcers in the stomach (white Wistar rats; [15]): 2.5 ± 1.1 | Adrenaline level in blood serum (white Wistar rats; [16]): 9.6 ± 3.28 µg/L | Eosinophil count in whole blood (white Wistar rats; [16]): 911 ± 8.2 | Noradrenaline level in blood serum (white Wistar rats; [16]): 18.4 ± 5.27 µg/L | Number of ulcers in the stomach (white Wistar rats; [16]): 2.1 ± 0.7 | all measured characteristics versus the control group (group #1) (white Wistar rats; all the tests, oral aqueous solutions): 2.5-3.5 times | number of defecation acts, control animals versus treated animals (white Wistar rats; control more than treated): 3-4 times | ulcer count versus the control group (group #1) (white Wistar rats; oral aqueous solutions): more than 10 times | decrease in the level of adrenaline and norepinephrine (white Wistar rats; versus control): 3,5-4 times | LD100 (male Wistar rats; oral, white rats of the Wistar line): 8000 mg/kg | Dead, % (male Wistar rats; single oral dose 1000 mg/kg): 0% | Dead (male Wistar rats; single oral dose 1000 mg/kg): 0 | Survived (male Wistar rats; single oral dose 1000 mg/kg): 6 | Dead, % (male Wistar rats; single oral dose 2000 mg/kg): 0% | Dead (male Wistar rats; single oral dose 2000 mg/kg): 0 | Survived (male Wistar rats; single oral dose 2000 mg/kg): 6 | Dead, % (male Wistar rats; single oral dose 3000 mg/kg): 0% | Dead (male Wistar rats; single oral dose 3000 mg/kg): 0 | Survived (male Wistar rats; single oral dose 3000 mg/kg): 6 | Dead, % (male Wistar rats; single oral dose 4000 mg/kg): 0% | Dead (male Wistar rats; single oral dose 4000 mg/kg): 0 | Survived (male Wistar rats; single oral dose 4000 mg/kg): 6 | Dead, % (male Wistar rats; single oral dose 5000 mg/kg): 16.6% | Dead (male Wistar rats; single oral dose 5000 mg/kg): 1 | Survived (male Wistar rats; single oral dose 5000 mg/kg): 5 | Dead, % (male Wistar rats; single oral dose 6000 mg/kg): 50% | Dead (male Wistar rats; [17]): 3 and 3/3 | Survived (male Wistar rats; [17]): 3 and 3/3 | Dead, % (male Wistar rats; single oral dose 7000 mg/kg): 50% | Dead (male Wistar rats; [18]): 3 and 3/3 | Survived (male Wistar rats; [18]): 3 and 3/3 | Survived (male Wistar rats; single oral dose 8000 mg/kg): 0
